Reference: US20260053760A1, “Compositions Suitable for Use on Skin Afflicted with Eczema” (Kenvue Brands LLC, priority 2022, published 2026)

System: Staphylococcus epidermidis (ATCC 12228)
Experiment: In vitro bacteria competition assay (co-culture)
Type: cell-based
Conditions: 1:1 co-culture with S. aureus in Nutrient Broth, 24 hours aerobic, colony counts; percentages w/v %
Procedure: In vitro bacteria competition assay evaluated Staphylococcus epidermidis (ATCC 12228, skin health associated strain) and Staphylococcus aureus (ATCC 6538, human lesion isolate) co-culture in the presence of test materials. Percentages are w/v % in liquid medium (Nutrient Broth, Culture Media and Supplies Inc.) To mimic the microenvironment of the skin surface, an aerobic, co-culture system of S. epidermidis and S. aureus was established. 50 μL S. epidermidis and 50 μL S. aureus (a 1:1 ratio) were inoculated (50 μL at approximately 5.0×10^6 CFU/mL each) in Nutrient Broth and in the presence of the test materials as specified in Table 14 below. [table] Test groups were incubated aerobically for 24 hours (n=3 per test group) After 24 hours, each test group was plated onto agar and incubated aerobically for 24 hours […]. After incubation, colonies were counted, and CFU/mL calculated. S. epidermidis and S. aureus colonies were differentiated on agar (Tryptic Soy Agar+5% sheep's blood, BD Diagnostics) based on representative morphology.

With `CC(O)C(=O)O` (stereo not shown) [Lactic Acid (1.1%), Lactic acid] the “Bacteria Competition Assay: S. epidermidis growth versus untreated” value was “inhibited”.
